Data as given in ChEMBL document CHEMBL1909046, “DrugMatrix in vitro pharmacology data”.

Key:
[1] = molecular target: 5-hydroxytryptamine receptor 4 (Cavia porcellus, UniProt O70528); format: cell membranes, Dunkin-Hartley, Striatum, Membrane; further: in other assays of this panel Not Active means under 50% inhibition at 10 µM
[2] = molecular target: 5-hydroxytryptamine receptor 6 (Homo sapiens, UniProt P50406); format: cell membranes, HeLa, Membrane; further: in other assays of this panel Not Active means under 50% inhibition at 10 µM
5-hydroxytryptamine receptor 6, sequence (P50406 whole entry): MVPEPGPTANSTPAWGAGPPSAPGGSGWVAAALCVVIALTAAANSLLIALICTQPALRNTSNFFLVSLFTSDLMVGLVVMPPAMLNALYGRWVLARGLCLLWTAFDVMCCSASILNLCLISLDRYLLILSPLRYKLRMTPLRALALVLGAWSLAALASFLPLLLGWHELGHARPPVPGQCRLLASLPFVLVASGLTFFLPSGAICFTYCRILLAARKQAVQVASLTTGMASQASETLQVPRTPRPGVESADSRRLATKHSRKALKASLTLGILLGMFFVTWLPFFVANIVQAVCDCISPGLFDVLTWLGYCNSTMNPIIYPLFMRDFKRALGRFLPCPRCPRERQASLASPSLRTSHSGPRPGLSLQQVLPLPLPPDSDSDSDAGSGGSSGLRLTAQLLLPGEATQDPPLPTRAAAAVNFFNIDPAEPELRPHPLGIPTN

[3] = molecular target: Vascular endothelial growth factor receptor 1 (Homo sapiens, UniProt P17948); format: cell-based; conditions: huvec; further: in other assays of this panel Not Active means under 50% inhibition at 10 µM
Vascular endothelial growth factor receptor 1, sequence (P17948 whole entry): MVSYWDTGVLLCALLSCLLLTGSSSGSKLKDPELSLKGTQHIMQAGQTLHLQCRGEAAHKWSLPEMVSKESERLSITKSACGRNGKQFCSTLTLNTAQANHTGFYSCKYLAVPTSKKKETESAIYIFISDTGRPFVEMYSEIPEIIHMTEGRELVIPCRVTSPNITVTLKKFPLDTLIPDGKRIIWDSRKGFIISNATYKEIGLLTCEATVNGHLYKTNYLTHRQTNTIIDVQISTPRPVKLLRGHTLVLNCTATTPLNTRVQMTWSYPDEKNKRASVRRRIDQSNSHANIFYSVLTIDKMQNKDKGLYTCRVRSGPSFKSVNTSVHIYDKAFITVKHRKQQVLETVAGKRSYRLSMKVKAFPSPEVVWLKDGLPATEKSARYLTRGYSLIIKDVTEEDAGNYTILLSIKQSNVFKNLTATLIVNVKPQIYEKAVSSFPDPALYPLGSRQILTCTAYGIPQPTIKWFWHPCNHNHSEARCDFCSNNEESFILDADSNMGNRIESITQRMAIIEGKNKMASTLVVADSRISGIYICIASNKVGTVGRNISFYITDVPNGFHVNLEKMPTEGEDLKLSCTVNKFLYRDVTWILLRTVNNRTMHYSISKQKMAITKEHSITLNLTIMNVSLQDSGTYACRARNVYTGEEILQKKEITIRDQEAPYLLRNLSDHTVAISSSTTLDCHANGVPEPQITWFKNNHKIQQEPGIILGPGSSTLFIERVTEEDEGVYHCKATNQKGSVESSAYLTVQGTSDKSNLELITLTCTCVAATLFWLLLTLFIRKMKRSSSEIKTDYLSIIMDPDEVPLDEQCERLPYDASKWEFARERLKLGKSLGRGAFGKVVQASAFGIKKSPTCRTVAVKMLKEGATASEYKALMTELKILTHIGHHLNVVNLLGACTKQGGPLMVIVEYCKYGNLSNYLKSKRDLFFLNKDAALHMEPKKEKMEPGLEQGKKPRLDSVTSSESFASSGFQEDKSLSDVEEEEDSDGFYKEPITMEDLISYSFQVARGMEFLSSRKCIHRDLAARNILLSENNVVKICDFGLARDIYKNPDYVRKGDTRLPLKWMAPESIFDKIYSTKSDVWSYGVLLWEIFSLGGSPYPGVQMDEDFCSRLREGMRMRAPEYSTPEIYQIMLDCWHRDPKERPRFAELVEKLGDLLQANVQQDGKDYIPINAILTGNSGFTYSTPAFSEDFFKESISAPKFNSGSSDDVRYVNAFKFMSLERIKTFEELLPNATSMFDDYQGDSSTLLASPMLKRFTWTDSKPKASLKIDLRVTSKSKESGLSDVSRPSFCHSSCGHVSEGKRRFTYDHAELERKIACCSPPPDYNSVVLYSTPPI

[4] = DRUGMATRIX: Glutamate, AMPA radioligand binding (ligand: [3H] AMPA); format: cell membranes, Rattus norvegicus, Wistar, Cerebral cortex, Membrane; conditions: Not Active = under 50% inhibition at 10 µM
[5] = DRUGMATRIX: Imidazoline I2, Central radioligand binding (ligand: [3H] Idazoxan); format: cell membranes, Rattus norvegicus, Wistar, Cerebral cortex, Membrane; conditions: Not Active = under 50% inhibition at 10 µM
[6] = molecular target: Cytochrome P450 2C19 (Homo sapiens, UniProt P33261); conditions: bti-tn-5b1-4; further: in other assays of this panel Not Active means under 50% inhibition at 10 µM
Cytochrome P450 2C19, sequence (P33261 whole entry): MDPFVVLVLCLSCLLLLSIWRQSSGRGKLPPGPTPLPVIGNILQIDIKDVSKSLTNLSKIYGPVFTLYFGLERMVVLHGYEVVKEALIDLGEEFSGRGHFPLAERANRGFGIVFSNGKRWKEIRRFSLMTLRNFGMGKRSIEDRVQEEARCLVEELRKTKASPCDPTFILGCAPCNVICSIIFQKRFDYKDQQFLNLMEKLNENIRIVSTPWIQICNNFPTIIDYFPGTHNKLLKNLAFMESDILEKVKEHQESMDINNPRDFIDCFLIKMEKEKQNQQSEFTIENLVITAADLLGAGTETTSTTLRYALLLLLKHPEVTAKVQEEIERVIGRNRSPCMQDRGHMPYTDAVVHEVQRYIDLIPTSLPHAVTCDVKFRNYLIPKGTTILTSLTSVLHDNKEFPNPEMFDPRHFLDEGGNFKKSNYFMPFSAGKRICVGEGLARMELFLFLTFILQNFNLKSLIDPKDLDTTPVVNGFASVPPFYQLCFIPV

[7] = molecular target: Cytochrome P450 3A4 (Homo sapiens, UniProt P08684); conditions: bti-tn-5b1-4; further: in other assays of this panel Not Active means under 50% inhibition at 10 µM
Cytochrome P450 3A4, sequence (P08684 whole entry): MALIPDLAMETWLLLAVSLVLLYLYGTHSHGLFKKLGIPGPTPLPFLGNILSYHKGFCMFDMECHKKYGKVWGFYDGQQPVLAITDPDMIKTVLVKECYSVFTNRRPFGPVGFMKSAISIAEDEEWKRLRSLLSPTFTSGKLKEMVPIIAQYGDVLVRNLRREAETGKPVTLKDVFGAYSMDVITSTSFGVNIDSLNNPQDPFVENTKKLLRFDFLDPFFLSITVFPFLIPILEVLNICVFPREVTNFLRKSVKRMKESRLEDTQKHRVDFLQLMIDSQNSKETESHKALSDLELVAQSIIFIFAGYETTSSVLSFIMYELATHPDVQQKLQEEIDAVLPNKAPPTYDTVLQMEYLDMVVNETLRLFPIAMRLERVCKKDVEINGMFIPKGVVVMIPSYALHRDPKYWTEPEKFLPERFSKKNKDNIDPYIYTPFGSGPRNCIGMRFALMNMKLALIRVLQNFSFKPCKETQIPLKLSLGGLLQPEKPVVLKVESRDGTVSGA

5-hydroxytryptamine receptor 4, sequence (O70528 whole entry): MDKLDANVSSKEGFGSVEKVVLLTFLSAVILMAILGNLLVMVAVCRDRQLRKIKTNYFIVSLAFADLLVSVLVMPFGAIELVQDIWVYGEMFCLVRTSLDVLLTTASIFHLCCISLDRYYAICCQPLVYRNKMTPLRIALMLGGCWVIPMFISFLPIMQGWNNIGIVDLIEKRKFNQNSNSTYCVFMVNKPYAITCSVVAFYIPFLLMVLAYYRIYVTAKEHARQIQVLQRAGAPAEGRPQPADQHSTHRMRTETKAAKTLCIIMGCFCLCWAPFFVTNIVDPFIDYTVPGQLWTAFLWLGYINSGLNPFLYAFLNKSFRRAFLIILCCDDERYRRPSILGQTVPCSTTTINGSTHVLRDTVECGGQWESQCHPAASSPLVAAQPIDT

SMILES | IC50 [1] | IC50 ([2]; hela) | IC50 [3] | IC50 [4] | Ki [4] | IC50 [5] | Ki [5] | IC50 [6] | Ki [6] | IC50 [7] | Ki [7] | IC50 ([2]; read-out: IC50) | Ki ([2]; read-out: Ki) | IC50 ([5]; read-out: IC50) | Ki ([5]; read-out: Ki)
C[C@H]1C[C@H]2[C@@H]3CCC4=CC(=O)C=C[C@]4(C)[C@@]3(F)[C@@H](O)C[C@]2(C)[C@@]1(O)C(=O)CO [BETAMETHASONE] | Not Active | Not Active | Not Active | Not Active | Not Active | Not Active | Not Active |  |  |  |  |  |  |  | 
CC(C)NCC(O)COc1ccc(CC(N)=O)cc1 (configuration not stated) [ATENOLOL] | Not Active | Not Active | Not Active | Not Active | Not Active | Not Active | Not Active |  |  |  |  |  |  |  | 
O=C1c2ccccc2C(=O)C1c1ccccc1 [PHENINDIONE] | Not Active | Not Active | Not Active | Not Active | Not Active | Not Active | Not Active | Not Active | Not Active | Not Active | Not Active |  |  |  | 
CCCCCCNC(=O)n1cc(F)c(=O)[nH]c1=O [CARMOFUR] | Not Active | Not Active | Not Active | Not Active | Not Active | Not Active | Not Active | Not Active | Not Active | Not Active | Not Active |  |  |  | 
O=c1[nH]cnc2c1ncn2[C@H]1CC[C@@H](CO)O1 [DIDANOSINE] | Not Active | Not Active | Not Active | Not Active | Not Active | Not Active | Not Active | Not Active | Not Active | Not Active | Not Active |  |  |  | 
CC(=O)Nc1ccc2c(c1)Cc1ccccc1-2 [2-ACETYLAMINOFLUORENE] | Not Active | Not Active | Not Active | Not Active | Not Active | Not Active | Not Active | Not Active | Not Active | Not Active | Not Active |  |  |  | 
CC(C)(c1ccc(O)cc1)c1ccc(O)cc1 [BISPHENOL A] | Not Active |  | Not Active | Not Active | Not Active | Not Active | Not Active | Not Active | Not Active | Not Active | Not Active | 5420 nM | 2520 nM |  | 
CO[C@H]1O[C@@H]2O[C@@]3(C)CC[C@H]4[C@H](C)CC[C@@H]([C@H]1C)[C@@]24OO3 | Not Active | Not Active | Not Active | Not Active | Not Active | Not Active | Not Active | Not Active | Not Active | Not Active | Not Active |  |  |  | 
C#C[C@]1(O)CC[C@H]2[C@@H]3CCC4=CC(=O)CC[C@@H]4[C@H]3CC[C@@]21C [NORETHINDRONE] | Not Active | Not Active | Not Active | Not Active | Not Active | Not Active | Not Active | Not Active | Not Active |  |  |  |  |  | 
CN(Cc1cc(Br)cc(Br)c1N)C1CCCCC1 [BROMHEXINE] | Not Active | Not Active | Not Active | Not Active | Not Active | Not Active | Not Active | Not Active | Not Active | Not Active | Not Active |  |  |  | 
CC12CCC(CC1=O)C2(C)C (configuration not stated) [CAMPHOR] | Not Active | Not Active | Not Active | Not Active | Not Active | Not Active | Not Active | Not Active | Not Active | Not Active | Not Active |  |  |  | 
C[C@@H]1[C@H](O)[C@@H](C)/C=C/C=C/C=C/C=C/C=C/C=C/C=C/[C@H](O[C@@H]2O[C@H](C)[C@@H](O)[C@H](N)[C@@H]2O)C[C@@H]2O[C@](O)(C[C@@H](O)C[C@@H](O)[C@H](O)CC[C@@H](O)C[C@@H](O)CC(=O)O[C@H]1C)C[C@H](O)[C@H]2C(=O)O [AMPHOTERICIN B] | Not Active | Not Active | Not Active | Not Active | Not Active | Not Active | Not Active | Not Active | Not Active | Not Active | Not Active |  |  |  | 
Nc1ccc(Cc2ccc(N)cc2)cc1 | Not Active | Not Active | Not Active | Not Active | Not Active | Not Active | Not Active | Not Active | Not Active | Not Active | Not Active |  |  |  | 
CCN(CCO)CCCC(C)Nc1ccnc2cc(Cl)ccc12 (configuration not stated) [HYDROXYCHLOROQUINE] | Not Active | Not Active | Not Active | Not Active | Not Active |  |  |  |  |  |  |  |  | 479 nM | 319 nM
O=C(O)COC(=O)Cc1ccccc1Nc1c(Cl)cccc1Cl [ACECLOFENAC] | Not Active | Not Active | Not Active | Not Active | Not Active | Not Active | Not Active | Not Active | Not Active | Not Active | Not Active |  |  |  | 
O=C(O)CCc1nc(-c2ccccc2)c(-c2ccccc2)o1 [OXAPROZIN] | Not Active | Not Active | Not Active | Not Active | Not Active | Not Active | Not Active | Not Active | Not Active | Not Active | Not Active |  |  |  | 
C=CCN1CC[C@]23c4c5ccc(O)c4O[C@H]2/C(=N/N=C2\CC[C@@]4(O)[C@H]6Cc7ccc(O)c8c7[C@@]4(CCN6CC=C)[C@H]2O8)CC[C@@]3(O)[C@H]1C5 [NALOXONAZINE] | Not Active | Not Active | Not Active | Not Active | Not Active | Not Active | Not Active | Not Active | Not Active | Not Active | Not Active |  |  |  | 
O=C(O)CO [GLYCOLIC ACID] | Not Active | Not Active | Not Active | Not Active | Not Active | Not Active | Not Active | Not Active | Not Active | Not Active | Not Active |  |  |  | 
COC(=O)Nc1nc2ccc(Sc3ccccc3)cc2[nH]1 [FENBENDAZOLE] | Not Active | Not Active | Not Active | Not Active | Not Active | Not Active | Not Active | Not Active | Not Active | Not Active | Not Active |  |  |  | 
CC12CCC(CC1)C(C)(C)O2 [EUCALYPTOL] | Not Active | Not Active | Not Active | Not Active | Not Active | Not Active | Not Active | Not Active | Not Active | Not Active | Not Active |  |  |  | 
O=C(Nc1ccc(Cl)c(Cl)c1)c1cc(Cl)cc(Cl)c1O [3,3',4',5-TETRACHLOROSALICYLANILIDE] | Not Active | Not Active | Not Active | Not Active | Not Active | Not Active | Not Active | Not Active | Not Active | Not Active | Not Active |  |  |  | 
Cc1ccnc2c1NC(=O)c1cccnc1N2C1CC1 [NEVIRAPINE] | Not Active | Not Active | Not Active | Not Active | Not Active | Not Active | Not Active | Not Active | Not Active | Not Active | Not Active |  |  |  | 
COc1ccc(Cl)cc1C(=O)NCCc1ccc(S(=O)(=O)NC(=O)NC2CCCCC2)cc1 [GLYBURIDE] | Not Active | Not Active | Not Active | Not Active | Not Active | Not Active | Not Active | Not Active | Not Active |  |  |  |  |  | 
O=C(O)CNCP(=O)(O)O [GLYPHOSATE] | Not Active | Not Active | Not Active | Not Active | Not Active | Not Active | Not Active |  |  |  |  |  |  |  | 
CC(C)(C#N)c1cc(Cn2cncn2)cc(C(C)(C)C#N)c1 [ANASTROZOLE] | Not Active | Not Active | Not Active | Not Active | Not Active | Not Active | Not Active | Not Active | Not Active |  |  |  |  |  | 
COc1cc([C@@H]2c3cc4c(cc3[C@H](O)[C@H]3COC(=O)[C@H]23)OCO4)cc(OC)c1OC [PODOFILOX] | Not Active | Not Active | Not Active | Not Active | Not Active | Not Active | Not Active |  |  |  |  |  |  |  | 
CC1(COc2ccc(CC3SC(=O)NC3=O)cc2)CCCCC1 (configuration not stated) [CIGLITAZONE] | Not Active | Not Active | Not Active | Not Active | Not Active | Not Active | Not Active |  |  | Not Active | Not Active |  |  |  | 
NS(=O)(=O)c1cc(C(=O)O)c(NCc2ccco2)cc1Cl [FUROSEMIDE] | Not Active | Not Active | Not Active | Not Active | Not Active | Not Active | Not Active |  |  |  |  |  |  |  | 
